This test concerns Botrytis cinerea (B05.10). Description: Resazurin antifungal assay of 180 alpha-factor peptide variants towards Botrytis (Example 2). It counts as cell-based. Further details: key to active against Botrytis at 15 μM / active against Botrytis at 10 μM: Peptides that showed greater than 90% inhibition were considered active against Botrytis. Conditions: for Inhibition at 10 μM / Inhibition at 15 μM / Inhibition at 20 μM / Inhibition at 50 μM / Inhibition at 100 μM: % inhibition of fungal growth, Botrytis conidia, resazurin; for Inhibition at 10 μM: peptide 10 μM; for Inhibition at 15 μM / active against Botrytis at 15 μM: peptide 15 μM; for Inhibition at 20 μM: peptide 20 μM; for Inhibition at 50 μM: peptide 50 μM; for Inhibition at 100 μM: peptide 100 μM. As for the experimental part: The antifungal activity of 180 alpha-factor peptide variants towards Botrytis was tested. Experimental design:
Peptides corresponding to SEQ ID NO: 1-180 were chemically synthesized using the solid-phase synthesis method and resuspended in water to a stock solution of 1 mM. The stock solution was aliquoted in cryovials and stored at −80° C.
The Botrytis cinerea culture (B05.10) isolate was acquired from the Centraalbureau voor Schimmelcultures, the Netherlands. The Botrytis fungus was propagated on 0.5% V8 agar plates (200 ml V8 Juice, 3 g CaCO3, 15 g agar, 800-ml millipore water) at 20° C., in a 12 h photoperiod for 21 days.
Fungal conidia were harvested by scraping a Botrytis plate flooded with 1 ml water with 0.1% Tween 80 solution. Conidia were then collected in a 50 ml falcon tube by passing the solution through a 40 micron filter. The solution was then centrifuged at 6000 rpm and the pellet was resuspended in 1 ml of 20% glycerol. The conidia concentration of the resulting solution was counted using a hemocytometer. The stock was diluted to […] using 20% glycerol and frozen in 100 μl aliquots in −80° C. until further use.
Peptides were tested for activity against Botrytis, using the resazurin assay. For this, fungal stock conidia was first diluted to 5000 conidia/well. 50 μl of the spore suspension was added to each well of the sterile 96-well clear bottom testing plate and mixed with 50 μl of peptide solutions to a final concentration of 100, 50, 20, 15 and 10 μM. The plate was incubated for 24 h at 20° C. After 24 h, 10 μl of resazurin dye was added to the microtiter plate and incubated again for […]. Fluorescence was measured at 570/620 nm after 4 h of incubation with resazurin.
Growth inhibition was calculated by subtracting the fluorescence values of conidia only wells from sample wells and depicted as % inhibition of fungal growth. Four technical replicates were used for all treatments.
On the technique in general: The colour change of resazurin is a common sign of viable cells or microbes.

Peptide text beside a SMILES is read from it.

Take `CSCC[C@H](NC(=O)[C@@H]1CCCN1C(=O)[C@H](CCC(N)=O)NC(=O)CNC(=O)[C@@H]1CCCN1C(=O)[C@H](CCCCN)NC(=O)[C@H](Cc1ccccc1)NC(=O)[C@H](CCCCN)NC(=O)[C@H](CC(C)C)NC(=O)[C@H](Cc1c[nH]c2ccccc12)NC(=O)[C@H](Cc1c[nH]cn1)NC(=O)[C@@H](N)CCCCN)C(=O)N[C@@H](Cc1ccc(O)cc1)C(=O)O` [compound 13] (H-KHWLKFKPGQPMY-OH; N-terminus and C-terminus assumed): the Inhibition (usually the drop in the measured response relative to a control, in per cent) at 10 μM is listed as under 90%; the “Inhibition at 15 μM” value is recorded as 100%; the “Inhibition at 20 μM” value is given as 100%; the “Inhibition at 50 μM” value is given as 100%. In addition, the “Inhibition at 100 μM” value is 100% and the “active against Botrytis at 15 μM” value is reported as “active”.

Consider `CSCC[C@H](NC(=O)[C@@H]1CCCN1C(=O)[C@H](CCC(N)=O)NC(=O)CNC(=O)[C@@H]1CCCN1C(=O)[C@H](Cc1c[nH]c2ccccc12)NC(=O)[C@H](CC(C)C)NC(=O)[C@H](CCCCN)NC(=O)[C@H](CC(C)C)NC(=O)[C@H](Cc1c[nH]c2ccccc12)NC(=O)[C@H](Cc1c[nH]cn1)NC(=O)[C@@H](N)CCCCN)C(=O)N[C@@H](Cc1ccc(O)cc1)C(=O)O` [compound 14] (H-KHWLKLWPGQPMY-OH; N-terminus and C-terminus assumed), for which the “Inhibition at 10 μM” value is recorded as under 90%, the “Inhibition at 20 μM” value is under 90%, the “Inhibition at 50 μM” value turned out to be 100% and the “Inhibition at 100 μM” value was 100%.

With `CC[C@H](C)[C@H](NC(=O)[C@H](CCCCN)NC(=O)[C@H](CC(C)C)NC(=O)[C@@H](NC(=O)[C@H](Cc1c[nH]cn1)NC(=O)[C@@H](N)Cc1c[nH]c2ccccc12)[C@@H](C)O)C(=O)N[C@@H](CCCCN)C(=O)N[C@@H](CCCCN)C(=O)NCC(=O)N[C@@H](CCC(=O)O)C(=O)N1CCC[C@H]1C(=O)N[C@@H](CCSC)C(=O)N[C@@H](Cc1ccc(O)cc1)C(=O)O` [compound 15] (H-WHTLKIKKGEPMY-OH; N-terminus and C-terminus assumed), the “Inhibition at 10 μM” value is reported as under 90%, the “Inhibition at 20 μM” value is under 90%, the “Inhibition at 50 μM” value is recorded as 100% and the “Inhibition at 100 μM” value is listed as 100%.

Consider `CSCC[C@H](NC(=O)CNC(=O)[C@H](CCC(N)=O)NC(=O)CNC(=O)[C@@H](NC(=O)[C@H](CCCCN)NC(=O)[C@H](Cc1ccccc1)NC(=O)[C@@H](NC(=O)[C@H](CC(C)C)NC(=O)[C@H](Cc1c[nH]c2ccccc12)NC(=O)[C@H](Cc1c[nH]cn1)NC(=O)[C@@H](N)Cc1c[nH]c2ccccc12)[C@@H](C)O)[C@@H](C)O)C(=O)N[C@@H](Cc1ccc(O)cc1)C(=O)O` [compound 16] (H-WHWLTFKTGQGMY-OH; N-terminus and C-terminus assumed), for which the “Inhibition at 10 μM” value is under 90%, the “Inhibition at 20 μM” value is recorded as under 90%, the “Inhibition at 50 μM” value was found to be 100% and the “Inhibition at 100 μM” value was 100%.

`CSCC[C@H](NC(=O)[C@@H]1CCCN1C(=O)[C@H](CCC(N)=O)NC(=O)CNC(=O)[C@@H]1CCCN1C(=O)[C@H](Cc1c[nH]c2ccccc12)NC(=O)[C@H](CC(C)C)NC(=O)[C@H](CCCCN)NC(=O)[C@H](CC(C)C)NC(=O)[C@H](Cc1ccccc1)NC(=O)[C@H](Cc1c[nH]cn1)NC(=O)[C@@H](N)CCCCN)C(=O)N[C@@H](Cc1ccc(O)cc1)C(=O)O` [compound 17] (H-KHFLKLWPGQPMY-OH; N-terminus and C-terminus assumed): the “Inhibition at 10 μM” value is under 90%, the “Inhibition at 20 μM” value is under 90%, the “Inhibition at 50 μM” value came out at 100% and the “Inhibition at 100 μM” value worked out at 100%.

Regarding `CSCC[C@H](NC(=O)[C@@H]1CCCN1C(=O)[C@H](CCC(N)=O)NC(=O)CNC(=O)[C@@H]1CCCN1C(=O)[C@H](CCCCN)NC(=O)[C@H](Cc1ccccc1)NC(=O)[C@H](CCCNC(=N)N)NC(=O)[C@H](CC(C)C)NC(=O)[C@H](Cc1ccccc1)NC(=O)[C@H](Cc1c[nH]cn1)NC(=O)[C@@H](N)CCCCN)C(=O)N[C@@H](Cc1ccc(O)cc1)C(=O)O` [compound 18] (H-KHFLRFKPGQPMY-OH; N-terminus and C-terminus assumed), the “Inhibition at 10 μM” value was under 90%, the “Inhibition at 15 μM” value turned out to be 94.03%, the “Inhibition at 20 μM” value is 99.67% and the “Inhibition at 50 μM” value is listed as 100%. Further, the “Inhibition at 100 μM” value is 100% and the “active against Botrytis at 15 μM” value is “active”.

On to `CC[C@H](C)[C@H](NC(=O)[C@H](Cc1c[nH]c2ccccc12)NC(=O)[C@H](CCCCN)NC(=O)[C@@H]1CCCN1)C(=O)N[C@@H](CCCNC(=N)N)C(=O)N[C@@H](CC(C)C)C(=O)N[C@@H](CCCCN)C(=O)N1CCC[C@H]1C(=O)NCC(=O)N[C@@H](CCC(N)=O)C(=O)N1CCC[C@H]1C(=O)N[C@@H](CCSC)C(=O)N[C@@H](Cc1ccc(O)cc1)C(=O)O` [compound 19] (H-PKWIRLKPGQPMY-OH; N-terminus and C-terminus assumed), for which the “Inhibition at 10 μM” value is listed as under 90%, the “Inhibition at 20 μM” value was under 90%, the “Inhibition at 50 μM” value is recorded as 100% and the “Inhibition at 100 μM” value was 100%.

On to `CSCC[C@H](NC(=O)[C@@H]1CCCN1C(=O)[C@H](CCC(N)=O)NC(=O)CNC(=O)[C@@H]1CCCN1C(=O)[C@H](CCCCN)NC(=O)[C@H](Cc1ccccc1)NC(=O)[C@H](CO)NC(=O)[C@H](CC(C)C)NC(=O)[C@H](Cc1c[nH]c2ccccc12)NC(=O)[C@H](Cc1c[nH]cn1)NC(=O)[C@@H](N)CCCCN)C(=O)N[C@@H](Cc1ccc(O)cc1)C(=O)O` [compound 20] (H-KHWLSFKPGQPMY-OH; N-terminus and C-terminus assumed), for which the “Inhibition at 10 μM” value was under 90%, the “Inhibition at 20 μM” value is under 90%, the “Inhibition at 50 μM” value stood at 100% and the “Inhibition at 100 μM” value is given as 100%.

Turning to `CSCC[C@H](NC(=O)[C@H](CC(C)C)NC(=O)[C@H](CCC(N)=O)NC(=O)[C@@H](NC(=O)[C@H](Cc1c[nH]c2ccccc12)NC(=O)[C@H](Cc1c[nH]cn1)NC(=O)[C@@H](N)CCCCN)C(C)C)C(=O)N[C@@H](CCCCN)C(=O)NCC(=O)N[C@@H](CCC(N)=O)C(=O)N1CCC[C@H]1C(=O)N[C@@H](CCSC)C(=O)N[C@@H](Cc1ccc(O)cc1)C(=O)O` [compound 21] (H-KHWVQLMKGQPMY-OH; N-terminus and C-terminus assumed), the “Inhibition at 10 μM” value is under 90%, the “Inhibition at 20 μM” value was under 90%, the “Inhibition at 50 μM” value is 100% and the “Inhibition at 100 μM” value is 100%.

For the molecule `CSCC[C@H](NC(=O)[C@H](CCCCN)NC(=O)[C@H](Cc1ccccc1)NC(=O)[C@H](CCC(N)=O)NC(=O)[C@@H](NC(=O)[C@H](CC(C)C)NC(=O)[C@H](Cc1c[nH]cn1)NC(=O)[C@@H](N)CCCCN)C(C)C)C(=O)NCC(=O)N[C@@H](CCC(N)=O)C(=O)N1CCC[C@H]1C(=O)N[C@@H](CCSC)C(=O)N[C@@H](Cc1ccc(O)cc1)C(=O)O` [compound 22] (H-KHLVQFKMGQPMY-OH; N-terminus and C-terminus assumed), the “Inhibition at 10 μM” value is under 90%, the “Inhibition at 20 μM” value was under 90%, the “Inhibition at 50 μM” value is recorded as 100% and the “Inhibition at 100 μM” value is listed as 100%.

For the origin of these results see US20250382332A1, “NOVEL ALPHA-FACTOR BASED PEPTIDES WITH ANTIFUNGAL ACTIVITY” (INVAIO SCIENCES, INC., priority 2024, published 2025).
